Experimental data reported in US7914831B2, “Synergistic anti-inflammatory pharmaceutical compositions and related methods using curcuminoids or methylxanthines” (priority 2004, dated 2011).
≈ marks a conversion by molar mass, not a printed value.

System: PGE2 production
Format: cell-based, murine
Settings: Mus musculus, RAW264.7; RAW 264.7, test material 60 min prior to 1.0 μg/mL LPS, PGE2 18 h post stimulation; read-out: IC50 (median inhibitory concentration for PGE2)

Work on `Cn1c(=O)c2c(ncn2C)n(C)c1=O` [Caffeine, caffeine] yielded an IC50 of 25 µg/mL (≈ 129 µM).
